Like-named read-outs stand apart in the source and are kept apart here.
Columns and labels:
Assay in all cases: Test E pre-/postemergence plant response
Assay type in all cases: in vivo
[1] = tested on: deadnettle (henbit deadnettle, Lamium amplexicaule); settings: scale 0 to 100, read-out: Plant response rating, Deadnettle; for pest or weed control at 16 g/ha: 16 g ai/ha; for pest or weed control at 31 g/ha: 31 g ai/ha; for pest or weed control at 62 g/ha: 62 g ai/ha; for pest or weed control at 125 g/ha: 125 g ai/ha
Summary of the method: (§1)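 Pre-emergence: seeds sown in silt loam soil and sprayed with test chemicals in a non-phytotoxic solvent/surfactant mix. Post-emergence: plants at 2–18 cm (1- to 4-leaf stage) in peat/vermiculite medium treated with the same formulation. Visual rating versus controls after 7–21 days, 0 (no effect) to 100 (complete control).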

[2] = tested on: downy bromegrass (Bromus tectorum); settings: scale 0 to 100, read-out: Plant response rating, Bromegrass, Downy; for pest or weed control at 16 g/ha: 16 g ai/ha; for pest or weed control at 31 g/ha: 31 g ai/ha; for pest or weed control at 62 g/ha: 62 g ai/ha; for pest or weed control at 125 g/ha: 125 g ai/ha
Summary of the method: as §1

[3] = tested on: kochia (Kochia scoparia); settings: Bassia scoparia, scale 0 to 100, read-out: Plant response rating, Kochia; for pest or weed control at 16 g/ha: 16 g ai/ha; for pest or weed control at 31 g/ha: 31 g ai/ha; for pest or weed control at 62 g/ha: 62 g ai/ha; for pest or weed control at 125 g/ha: 125 g ai/ha
Summary of the method: as §1

[4] = tested on: wild mustard (Sinapis arvensis); settings: Brassica, scale 0 to 100, read-out: Plant response rating, Mustard, Wild; for pest or weed control at 16 g/ha: 16 g ai/ha; for pest or weed control at 31 g/ha: 31 g ai/ha; for pest or weed control at 62 g/ha: 62 g ai/ha; for pest or weed control at 125 g/ha: 125 g ai/ha
Summary of the method: as §1

[5] = tested on: field poppy (Papaver rhoeas); settings: scale 0 to 100, read-out: Plant response rating, Field Poppy; for pest or weed control at 16 g/ha: 16 g ai/ha; for pest or weed control at 31 g/ha: 31 g ai/ha; for pest or weed control at 62 g/ha: 62 g ai/ha; for pest or weed control at 125 g/ha: 125 g ai/ha
Summary of the method: as §1

[6] = tested on: speedwell (bird's-eye speedwell, Veronica persica); settings: scale 0 to 100, read-out: Plant response rating, Speedwell; for pest or weed control at 16 g/ha: 16 g ai/ha; for pest or weed control at 62 g/ha: 62 g ai/ha; for pest or weed control at 125 g/ha: 125 g ai/ha
Summary of the method: as §1

[7] = tested on: wild radish (Raphanus raphanistrum); settings: scale 0 to 100, read-out: Plant response rating, Radish, Wild; for pest or weed control at 16 g/ha: 16 g ai/ha; for pest or weed control at 31 g/ha: 31 g ai/ha; for pest or weed control at 62 g/ha: 62 g ai/ha; for pest or weed control at 125 g/ha: 125 g ai/ha
Summary of the method: as §1

[8] = tested on: wild oat (Avena fatua); settings: scale 0 to 100, read-out: Plant response rating, Oat, Wild; for pest or weed control at 16 g/ha: 16 g ai/ha; for pest or weed control at 31 g/ha: 31 g ai/ha; for pest or weed control at 62 g/ha: 62 g ai/ha; for pest or weed control at 125 g/ha: 125 g ai/ha
Summary of the method: as §1

[9] = tested on: windgrass (Apera spica-venti); settings: scale 0 to 100, read-out: Plant response rating, Windgrass; for pest or weed control at 16 g/ha: 16 g ai/ha; for pest or weed control at 62 g/ha: 62 g ai/ha; for pest or weed control at 125 g/ha: 125 g ai/ha
Summary of the method: as §1

[10] = tested on: chamomile (scentless chamomile, Matricaria inodora); settings: Tripleurospermum inodorum, scale 0 to 100, read-out: Plant response rating, Chamomile; for pest or weed control at 16 g/ha: 16 g ai/ha; for pest or weed control at 31 g/ha: 31 g ai/ha; for pest or weed control at 62 g/ha: 62 g ai/ha; for pest or weed control at 125 g/ha: 125 g ai/ha
Summary of the method: as §1

[11] = tested on: wild buckwheat (Polygonum convolvulus); settings: Fallopia convolvulus, scale 0 to 100, read-out: Plant response rating, Buckwheat, Wild; for pest or weed control at 16 g/ha: 16 g ai/ha; for pest or weed control at 31 g/ha: 31 g ai/ha; for pest or weed control at 62 g/ha: 62 g ai/ha; for pest or weed control at 125 g/ha: 125 g ai/ha
Summary of the method: as §1

[12] = post-emergence, 31 g ai/ha, Postemergence

FC(F)(F)c1cc(-c2ccccc2Oc2ncc(Cl)cn2)no1 [Compound 200, 5-chloro-2-[2-[5-(trifluoromethyl)-3-isoxazolyl]phenoxy]pyrimidine]
pest or weed control at 16 g/ha ([1]; post-emergence, Postemergence): 50%
pest or weed control at 31 g/ha ([1]; post-emergence, Postemergence): 60%
pest or weed control at 62 g/ha ([1]; post-emergence, Postemergence): 80%
pest or weed control at 125 g/ha ([1]; post-emergence, Postemergence): 90%
pest or weed control at 16 g/ha ([1]; pre-emergence, Preemergence): 60%
pest or weed control at 31 g/ha ([1]; pre-emergence, Preemergence): 90%
pest or weed control at 62 g/ha ([1]; pre-emergence, Preemergence): 100%
pest or weed control at 125 g/ha ([1]; pre-emergence, Preemergence): 100%
pest or weed control at 16 g/ha ([2]; post-emergence, Postemergence): 5%
pest or weed control at 31 g/ha ([2]; post-emergence, Postemergence): 10%
pest or weed control at 62 g/ha ([2]; post-emergence, Postemergence): 25%
pest or weed control at 125 g/ha ([2]; post-emergence, Postemergence): 35%
pest or weed control at 16 g/ha ([2]; pre-emergence, Preemergence): 10%
pest or weed control at 31 g/ha ([2]; pre-emergence, Preemergence): 35%
pest or weed control at 62 g/ha ([2]; pre-emergence, Preemergence): 45%
pest or weed control at 125 g/ha ([2]; pre-emergence, Preemergence): 80%
pest or weed control at 16 g/ha ([3]; post-emergence, Postemergence): 70%
pest or weed control at 31 g/ha ([3]; post-emergence, Postemergence): 85%
pest or weed control at 62 g/ha ([3]; post-emergence, Postemergence): 85%
pest or weed control at 125 g/ha ([3]; post-emergence, Postemergence): 90%
pest or weed control at 16 g/ha ([3]; pre-emergence, Preemergence): 70%
pest or weed control at 31 g/ha ([3]; pre-emergence, Preemergence): 100%
pest or weed control at 62 g/ha ([3]; pre-emergence, Preemergence): 100%
pest or weed control at 125 g/ha ([3]; pre-emergence, Preemergence): 100%
pest or weed control at 16 g/ha ([4]; post-emergence, Postemergence): 75%
pest or weed control at 31 g/ha ([4]; post-emergence, Postemergence): 95%
pest or weed control at 62 g/ha ([4]; post-emergence, Postemergence): 100%
pest or weed control at 125 g/ha ([4]; post-emergence, Postemergence): 100%
pest or weed control at 16 g/ha ([4]; pre-emergence, Preemergence): 85%
pest or weed control at 31 g/ha ([4]; pre-emergence, Preemergence): 95%
pest or weed control at 62 g/ha ([4]; pre-emergence, Preemergence): 85%
pest or weed control at 125 g/ha ([4]; pre-emergence, Preemergence): 100%
pest or weed control at 16 g/ha ([5]; post-emergence, Postemergence): 75%
pest or weed control at 31 g/ha ([5]; post-emergence, Postemergence): 80%
pest or weed control at 62 g/ha ([5]; post-emergence, Postemergence): 100%
pest or weed control at 125 g/ha ([5]; post-emergence, Postemergence): 100%
pest or weed control at 16 g/ha ([5]; pre-emergence, Preemergence): 80%
pest or weed control at 31 g/ha ([5]; pre-emergence, Preemergence): 90%
pest or weed control at 62 g/ha ([5]; pre-emergence, Preemergence): 95%
pest or weed control at 125 g/ha ([5]; pre-emergence, Preemergence): 95%
pest or weed control at 16 g/ha ([6]; post-emergence, Postemergence): 70%
pest or weed control at 31 g/ha [6, 12]: 100%
pest or weed control at 62 g/ha ([6]; post-emergence, Postemergence): 100%
pest or weed control at 125 g/ha ([6]; post-emergence, Postemergence): 100%
pest or weed control at 16 g/ha ([6]; pre-emergence, Preemergence): 100%
pest or weed control at 62 g/ha ([6]; pre-emergence, Preemergence): 100%
pest or weed control at 125 g/ha ([6]; pre-emergence, Preemergence): 100%
pest or weed control at 16 g/ha ([7]; post-emergence, Postemergence): 65%
pest or weed control at 31 g/ha ([7]; post-emergence, Postemergence): 80%
pest or weed control at 62 g/ha ([7]; post-emergence, Postemergence): 85%
pest or weed control at 125 g/ha ([7]; post-emergence, Postemergence): 95%
pest or weed control at 16 g/ha ([7]; pre-emergence, Preemergence): 80%
pest or weed control at 31 g/ha ([7]; pre-emergence, Preemergence): 70%
pest or weed control at 62 g/ha ([7]; pre-emergence, Preemergence): 95%
pest or weed control at 125 g/ha ([7]; pre-emergence, Preemergence): 95%
pest or weed control at 16 g/ha ([8]; post-emergence, Postemergence): 10%
pest or weed control at 31 g/ha ([8]; post-emergence, Postemergence): 20%
pest or weed control at 62 g/ha ([8]; post-emergence, Postemergence): 30%
pest or weed control at 125 g/ha ([8]; post-emergence, Postemergence): 35%
pest or weed control at 16 g/ha ([8]; pre-emergence, Preemergence): 0%
pest or weed control at 31 g/ha ([8]; pre-emergence, Preemergence): 0%
pest or weed control at 62 g/ha ([8]; pre-emergence, Preemergence): 30%
pest or weed control at 125 g/ha ([8]; pre-emergence, Preemergence): 75%
pest or weed control at 16 g/ha ([9]; post-emergence, Postemergence): 10%
pest or weed control at 31 g/ha [9, 12]: 20%
pest or weed control at 62 g/ha ([9]; post-emergence, Postemergence): 35%
pest or weed control at 125 g/ha ([9]; post-emergence, Postemergence): 45%
pest or weed control at 16 g/ha ([9]; pre-emergence, Preemergence): 15%
pest or weed control at 62 g/ha ([9]; pre-emergence, Preemergence): 100%
pest or weed control at 125 g/ha ([9]; pre-emergence, Preemergence): 100%
pest or weed control at 16 g/ha ([10]; post-emergence, Postemergence): 5%
pest or weed control at 31 g/ha ([10]; post-emergence, Postemergence): 10%
pest or weed control at 62 g/ha ([10]; post-emergence, Postemergence): 10%
pest or weed control at 125 g/ha ([10]; post-emergence, Postemergence): 15%
pest or weed control at 16 g/ha ([10]; pre-emergence, Preemergence): 25%
pest or weed control at 31 g/ha ([10]; pre-emergence, Preemergence): 25%
pest or weed control at 62 g/ha ([10]; pre-emergence, Preemergence): 60%
pest or weed control at 125 g/ha ([10]; pre-emergence, Preemergence): 75%
pest or weed control at 16 g/ha ([11]; post-emergence, Postemergence): 65%
pest or weed control at 31 g/ha ([11]; post-emergence, Postemergence): 70%
pest or weed control at 62 g/ha ([11]; post-emergence, Postemergence): 95%
pest or weed control at 125 g/ha ([11]; post-emergence, Postemergence): 100%
pest or weed control at 16 g/ha ([11]; pre-emergence, Preemergence): 65%
pest or weed control at 31 g/ha ([11]; pre-emergence, Preemergence): 75%
pest or weed control at 62 g/ha ([11]; pre-emergence, Preemergence): 100%
pest or weed control at 125 g/ha ([11]; pre-emergence, Preemergence): 100%

Source: patent US10131652B2, “Pyrimidinyloxy benzene derivatives as herbicides” (E. I. DU PONT DE NEMOURS AND COMPANY, priority 2014, dated 2018)
